Converted amounts (≈) assume the structure as drawn.

Data set [1] addresses T1, Beta-2 adrenergic receptor (Homo sapiens, UniProt P07550). Nature of the data set: biochemical.
Description: Displacement of [125I]cyanopindolol from human adrenergic beta2 receptor expressed in CHOK1 cells
The target of data set [2] is T2, Beta-3 adrenergic receptor (Homo sapiens, UniProt P13945). Nature of the data set: biochemical.
Description: Displacement of [125I]cyanopindolol from human adrenergic beta3 receptor expressed in CHOK1 cells
Data set [3] concerns the target T3, Beta-1 adrenergic receptor (Homo sapiens, UniProt P08588). Nature of the data set: Displacement of [125I]cyanopindolol from human adrenergic beta-1 receptor expressed in CHOK1 cells. The format is cell-based, CHO-K1. In general terms: Loss of bound radioactivity is the signal in a displacement assay; it reports binding, not function.
Target sequence in this assay (P08588 whole entry): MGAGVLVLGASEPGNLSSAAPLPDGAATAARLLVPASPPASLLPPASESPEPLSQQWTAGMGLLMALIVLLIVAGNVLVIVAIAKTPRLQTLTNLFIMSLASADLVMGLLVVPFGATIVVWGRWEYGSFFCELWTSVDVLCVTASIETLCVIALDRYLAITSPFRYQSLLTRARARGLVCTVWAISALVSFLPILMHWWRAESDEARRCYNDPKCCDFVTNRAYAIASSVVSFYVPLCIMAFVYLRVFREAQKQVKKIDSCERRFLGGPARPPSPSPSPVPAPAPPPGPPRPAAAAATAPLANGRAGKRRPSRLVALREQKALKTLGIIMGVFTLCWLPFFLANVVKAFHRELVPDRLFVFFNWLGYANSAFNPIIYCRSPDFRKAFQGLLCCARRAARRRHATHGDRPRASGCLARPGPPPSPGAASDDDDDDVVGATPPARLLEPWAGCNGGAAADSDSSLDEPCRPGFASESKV
The target of data set [4] is T2, Beta-3 adrenergic receptor.
Description: Agonist activity at human adrenergic beta3 receptor expressed in CHOK1 cells assessed as cAMP accumulation by HTRF assay
The target of data set [5] is T1, Beta-2 adrenergic receptor. Nature of the data set: Antagonist activity at human adrenergic beta2 receptor expressed in CHOK1 cells assessed as inhibition of cAMP accumulation by HTRF assay. Format: functional, cell-based, CHO-K1. (In general: Cyclic AMP is a second messenger, typically raised through Gs and lowered through Gi signalling.)
The nature of data set [6]: Cytotoxicity against human PBMC cells. The format is cell-based. Particulars: read-out: ED50 (the source's name); call rule not given here.
The nature of data set [7]: Solubility at pH 4. Format: physicochemical. Particulars: buffer.
The target of data set [8] is T3, Beta-1 adrenergic receptor. Nature of the data set: Agonist activity at human adrenergic beta-1 receptor expressed in CHOK1 cells assessed as cAMP accumulation by HTRF assay. The format is functional, cell-based, CHO-K1.
Target sequence in this assay (P08588 whole entry): as above
A short description of data set [9]: Cytotoxicity against human HepG2 cells. Format: cell-based. Particulars: read-out: ED50 (the source's name).
A short description of data set [10]: Cmax in Wistar rat at 10 mg/kg, po. Also on record: dose 10 mg/kg, route oral. Conditions: in vivo. The format is ADME, organism-based.
A short description of data set [11]: Solubility at pH 6. The format is physicochemical. Conditions: buffer.
The nature of data set [12]: Permeability by PAMPA method. The format is ADME.
Data set [13] in a line: Half life in Wistar rat at 10 mg/kg, po. Format: ADME, organism-based. Also on record: dose 10 mg/kg, route oral. Conditions: in vivo.
For data set [14], the target named is T3, Beta-1 adrenergic receptor. Nature of the data set: Intrinsic activity at human adrenergic beta-1 receptor expressed in CHOK1 cells assessed as cAMP accumulation by HTRF assay relative to isoproterenol. The format is functional, cell-based. Particulars: CHO-K1.
Target sequence in this assay (P08588 whole entry, looked up): as the sequence (P08588 whole entry) above
Data set [15] has as its target T2, Beta-3 adrenergic receptor. Nature of the data set: Antagonist activity at human adrenergic beta3 receptor expressed in CHOK1 cells assessed as inhibition of cAMP accumulation by HTRF assay. Format: functional, cell-based, CHO-K1.
For data set [16], the target named is T3, Beta-1 adrenergic receptor. Nature of the data set: Antagonist activity at human adrenergic beta-1 receptor expressed in CHOK1 cells assessed as inhibition of cAMP accumulation by HTRF assay. The format is functional, cell-based, CHO-K1.
Target sequence in this assay (P08588 whole entry): as above

T1 sequence (P07550 whole entry): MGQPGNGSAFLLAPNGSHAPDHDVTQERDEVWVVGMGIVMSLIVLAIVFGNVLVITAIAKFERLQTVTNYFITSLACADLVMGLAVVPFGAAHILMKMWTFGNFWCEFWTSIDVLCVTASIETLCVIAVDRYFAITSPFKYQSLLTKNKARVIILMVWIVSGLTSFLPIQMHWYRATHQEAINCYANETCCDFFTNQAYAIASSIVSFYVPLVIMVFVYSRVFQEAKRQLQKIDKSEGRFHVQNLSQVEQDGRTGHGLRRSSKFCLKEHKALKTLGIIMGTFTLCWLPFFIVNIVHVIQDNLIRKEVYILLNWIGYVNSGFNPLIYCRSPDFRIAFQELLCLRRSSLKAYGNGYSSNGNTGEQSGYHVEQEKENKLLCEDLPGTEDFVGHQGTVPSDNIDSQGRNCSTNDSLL
T2 sequence (P13945 whole entry): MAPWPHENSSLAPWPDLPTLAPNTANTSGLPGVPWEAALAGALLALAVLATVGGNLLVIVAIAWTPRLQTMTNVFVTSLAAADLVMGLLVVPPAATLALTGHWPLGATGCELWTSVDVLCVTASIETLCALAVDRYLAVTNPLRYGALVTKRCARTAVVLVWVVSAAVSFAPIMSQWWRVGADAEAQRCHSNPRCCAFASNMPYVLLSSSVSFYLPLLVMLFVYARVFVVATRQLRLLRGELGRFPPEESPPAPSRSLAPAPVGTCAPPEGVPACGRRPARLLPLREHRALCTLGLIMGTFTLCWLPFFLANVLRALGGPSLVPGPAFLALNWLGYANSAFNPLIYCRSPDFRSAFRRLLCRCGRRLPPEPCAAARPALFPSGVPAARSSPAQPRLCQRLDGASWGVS

One may read the Ki as a measure of affinity in units of concentration, obtained from inhibition or displacement. Turning to `C=CCc1ccc(OCC(O)CN2CCC(CN3C(=O)c4cccc5cccc(c45)C3=O)CC2)c(OC)c1` (configuration not stated), the figures for the Ki in data set [1], in data set [2] and in data set [3] (read-out: Ki) were 3290 nM, 3290 nM and 1360 nM, respectively.

The EC50 is the concentration giving half of the maximal effect. In the case of `C=CCc1ccccc1OCC(O)CN1CCC(CN2C(=O)c3cccc4cccc(c34)C2=O)CC1` (configuration not stated), the values for the Ki in data set [2] and in [3] (read-out: Ki) were 409 nM and 80 nM, respectively. Also, the EC50 in data set [4] turned out to be 2400 nM.

As to `C=CCc1ccccc1OCC(O)CN1CCC(CN2C(=O)CCCC2=O)CC1` (configuration not stated), the results for the inhibition constant (Ki) in [1], in data set [2] and in data set [3] (read-out: Ki) were 80 nM, 11000 nM and 440 nM, respectively.

Turning to `O=C1c2cccc3cccc(c23)C(=O)N1CC1CCN(CC(O)COc2cccc3[nH]c4ccccc4c23)CC1` (configuration not stated), the Ki in [1] was determined as 3 nM; in data set [2] it was 225 nM; in data set [3] (read-out: Ki), 7 nM.

As for `Cc1ccc(C(C)C)c(OCC(O)CN2CCN(CCN3C(=O)c4cccc5cccc(c45)C3=O)CC2)c1` (configuration not stated), the Ki was 110 nM in data set [1], above 10000 nM in data set [2] and “Not Active” in [3] (cho-k1).

Take `OC(COc1cccc2[nH]c3ccccc3c12)CN1CCC(Cc2ccccc2)CC1` (configuration not stated): the Ki amounted to 0.5 nM in data set [1], 230 nM in data set [2] and 14 nM in [3] (read-out: Ki).

`CC(C)c1ccccc1OCC(O)CNC1CCN(C)CC1` (configuration not stated): the Ki stood at 17 nM in data set [1], 1060 nM in data set [2] and 89 nM in data set [3] (read-out: Ki).

Consider `C=CCc1ccccc1OCC(O)CN1CCC(CN2C(=O)c3cccc4cc(OC)cc(c34)C2=O)CC1` (configuration not stated), for which the Ki came out at 78 nM in [1], 1510 nM in data set [2] and 300 nM in data set [3] (read-out: Ki).

`CC(C)c1ccccc1OCC(O)CN1CCC(CN2C(=O)c3cccc4cccc(c34)C2=O)CC1` (configuration not stated): the Ki in data set [1] was determined as 230 nM; in data set [2] it was 1030 nM; in data set [3] (read-out: Ki), 250 nM.

The term IC50 denotes the concentration at which inhibition is half-maximal. The term solubility denotes how much of the substance goes into solution per volume. Lower therefore signals a poorly soluble substance. One may read the Cmax as the highest concentration seen after dosing. In general, half-life refers to the time in which the quantity being followed falls by half. Turning to `O=C(c1ccc(F)cc1)C1CCN(CC(O)COc2cccc3[nH]c4ccccc4c23)CC1` (configuration not stated), the IC50 in [5] turned out to be 32 nM. Besides, the Ki turned out to be 0.3 nM in data set [1], 250 nM in [2] and 32 nM in data set [3] (read-out: Ki). For the same compound, the values for the CC50 in [6] and in [9] were 9000 nM and 19000 nM, respectively. The solubility stood at 180 µM (≈ 80.4 µg/mL) in [7] and 10 µM (≈ 4.47 µg/mL) in [11]. Also, the concentration giving a half-maximal response (EC50) in data set [8] amounted to 310 nM; in data set [4] it was 385 nM. This compound also gave a Cmax in [10] of 290 nM. Besides, in data set [12], the result was Active. Moreover, the half-life in data set [13] is 7.5 h. Further, the Intrinsic activity in data set [14] is 20%.

For `CC(C)c1ccccc1OCC(O)CN1CCC(CN2C(=O)CCCC2=O)CC1` (configuration not stated), the Ki in data set [1] is 9 nM; in [2], 2900 nM; in data set [3] (read-out: Ki) it was 245 nM.

On to `Cc1ccc(C(C)C)c(OCC(O)CN2CCC(CN3C(=O)c4cccc5cccc(c45)C3=O)CC2)c1` (configuration not stated), for which the IC50 in data set [15] worked out at 1470 nM; in data set [16], 1380 nM. Further, the values for the Ki in data set [1], in data set [2] and in [3] (read-out: Ki) were 80 nM, 411 nM and 1000 nM, respectively.

On to `CC(C)c1ccccc1OCC(O)CN1CCC(CN2C(=O)c3ccccc3C2=O)CC1` (configuration not stated), for which the Ki in data set [1] turned out to be 17 nM; in [2], 1480 nM; in [3] (read-out: Ki), 720 nM.

As for `C=CCc1ccccc1OCC(O)CN1CCN(CCN2C(=O)c3cccc4cccc(c34)C2=O)CC1` (configuration not stated), the Ki came out at 150 nM in data set [1], 3100 nM in data set [2] and 293 nM in data set [3] (read-out: Ki).

On to `COc1ccc(C(=O)C2CCN(CC(O)COc3cccc4[nH]c5ccccc5c34)CC2)cc1` (configuration not stated), for which the Ki in [1] was found to be 0.2 nM; in [2] it was 9180 nM; in data set [3] (read-out: Ki), 13 nM.

As for `COc1ccc(OCC(O)CN2CCC(CN3C(=O)c4cccc5cccc(c45)C3=O)CC2)c(C(C)(C)C)c1` (configuration not stated), the Ki is 300 nM in [1], 3380 nM in data set [2] and 530 nM in data set [3] (read-out: Ki).

In the case of `C=CCc1ccccc1OCC(O)CN1CCC(CN2C(=O)c3ccccc3C2=O)CC1` (configuration not stated), the figures for the Ki in data set [1], in [2] and in data set [3] (read-out: Ki) were 50 nM, 3400 nM and 190 nM, respectively.

Consider `C=CCc1ccccc1OCC(O)CN1CCC(CN2C(=O)c3cccc4cc(O)cc(c34)C2=O)CC1` (configuration not stated), for which the Ki worked out at 135 nM in data set [1], 2200 nM in [2] and 170 nM in [3] (read-out: Ki).

In the case of `CC(C)c1ccccc1OCC(O)CN1CCC(N2C(=O)c3cccc4cccc(c34)C2=O)CC1` (configuration not stated), the Ki in data set [1] worked out at 13 nM; in data set [2], 3820 nM; in [3] (read-out: Ki), 240 nM.

Regarding `O=C1c2cccc3cccc(c23)C(=O)N1C1CCN(CC(O)COc2cccc3[nH]c4ccccc4c23)CC1` (configuration not stated), the Ki turned out to be 57 nM in [1], 98 nM in data set [2] and 76 nM in data set [3] (read-out: Ki).

Turning to `O=C1c2cccc3cc(O)cc(c23)C(=O)N1CC1CCN(CC(O)COc2cccc3[nH]c4ccccc4c23)CC1` (configuration not stated), the 50% inhibitory concentration (IC50) in [5] stood at 120 nM. For the same compound, the Ki worked out at 37 nM in data set [1], 590 nM in data set [2] and 250 nM in [3] (read-out: Ki). The EC50 amounted to 80 nM in [8] and 234 nM in data set [4]. In addition, in data set [14], the Intrinsic activity was determined as 40%.

As for `C=CCc1ccccc1OCC(O)CN1CCC(N2C(=O)c3cccc4cccc(c34)C2=O)CC1` (configuration not stated), the inhibitory constant (Ki) was 40 nM in [1], 2340 nM in data set [2] and 1050 nM in data set [3] (read-out: Ki).

Take `COc1cc2c3c(cccc3c1)C(=O)N(CC1CCN(CC(O)COc3ccccc3C(C)C)CC1)C2=O` (configuration not stated): the Ki was 38 nM in [1], 698 nM in data set [2] and 209 nM in data set [3] (read-out: Ki).

With `CC(C)c1ccccc1OCC(O)CN1CCOCC1` (configuration not stated), the Ki in data set [1] was 1.2 nM; in data set [2], 1770 nM; in data set [3] (read-out: Ki) it was 12 nM.

For `O=C1c2cccc3cccc(c23)C(=O)N1CC1CCN(CC(O)COc2cccc3[nH]ccc23)CC1` (configuration not stated), the Ki amounted to 120 nM in [1], 1000 nM in data set [2] and 27 nM in [3] (read-out: Ki).

Turning to `COc1cc2c3c(cccc3c1)C(=O)N(CC1CCN(CC(O)COc3cccc4[nH]c5ccccc5c34)CC1)C2=O` (configuration not stated), the Ki worked out at 8 nM in [1], 410 nM in data set [2] and 0.1 nM in data set [3] (read-out: Ki).

As to `CC(C)c1ccccc1OCC(O)CN1CCN(CCN2C(=O)c3cccc4cccc(c34)C2=O)CC1` (configuration not stated), the Ki came out at 70 nM in data set [1], 1480 nM in [2] and 740 nM in [3] (read-out: Ki).

Turning to `O=C1c2cccc3cccc(c23)C(=O)N1CC1CCN(CC(O)COc2ccc3[nH]ccc3c2)CC1` (configuration not stated), the Ki was 1260 nM in data set [1], 8500 nM in data set [2] and 4530 nM in data set [3] (read-out: Ki).

Turning to `OC(COc1cccc2[nH]c3ccccc3c12)CN1CCC(Cc2cccnc2)CC1` (configuration not stated), the Ki in data set [1] came to 0.1 nM; in data set [2] it was 72 nM; in data set [3] (read-out: Ki) it was 1 nM.

With `C=CCc1ccccc1OCC(O)CN1CCOCC1` (configuration not stated), the Ki in data set [1] is 7 nM; in data set [2], 4960 nM; in data set [3] (read-out: Ki) it was 114 nM.

Consider `COc1ccc(OCC(O)CNC2CCN(c3ncnc4scc(-c5ccccc5)c34)CC2)cc1` (configuration not stated), for which, in [3] (read-out: Ki), the Ki is above 10000 nM.

Regarding `COc1ccc(CC2CCN(CC(O)COc3cccc4[nH]c5ccccc5c34)CC2)cc1` (configuration not stated), the Ki in data set [1] was 0.2 nM; in data set [2] it was 455 nM; in data set [3] (read-out: Ki) it was 3.4 nM.

For the compound `C=CCc1ccccc1OCC(O)CNC1CCN(C)CC1` (configuration not stated), the Ki in data set [1] was found to be 2.4 nM; in [2], 6220 nM; in data set [3] (read-out: Ki), 260 nM.

As to `O=C(c1ccccc1)C1CCN(CC(O)COc2cccc3[nH]c4ccccc4c23)CC1` (configuration not stated), the results for the Ki in [1], in data set [2] and in data set [3] (read-out: Ki) were 0.2 nM, 230 nM and 16 nM, respectively.
